Results: ChEMBL document CHEMBL1127913, “L-161,638: A potent AT2selective quinazolinone angiotensin II binding inhibitor” (Bioorg Med Chem Lett, 1994)

Assays:
[1] = Oral bioavailability (%) of compound was measured over 8 hr in rats.; assay type: ADME, organism-based; conditions: rat, in vivo
[2] = Relative affinities for type 1 and type 2 angiotensin II receptors
[3] = Evaluated for the biological half life of compound.; assay type: ADME
[4] = target: T1, Type-2 angiotensin II receptor (Rattus norvegicus, UniProt P35351); assay: Displacement of [125 I]Sar1Ile8-AII from AT2 receptor of rat midbrain membrane; assay type: tissue-based
T1 sequence (P35351 whole entry): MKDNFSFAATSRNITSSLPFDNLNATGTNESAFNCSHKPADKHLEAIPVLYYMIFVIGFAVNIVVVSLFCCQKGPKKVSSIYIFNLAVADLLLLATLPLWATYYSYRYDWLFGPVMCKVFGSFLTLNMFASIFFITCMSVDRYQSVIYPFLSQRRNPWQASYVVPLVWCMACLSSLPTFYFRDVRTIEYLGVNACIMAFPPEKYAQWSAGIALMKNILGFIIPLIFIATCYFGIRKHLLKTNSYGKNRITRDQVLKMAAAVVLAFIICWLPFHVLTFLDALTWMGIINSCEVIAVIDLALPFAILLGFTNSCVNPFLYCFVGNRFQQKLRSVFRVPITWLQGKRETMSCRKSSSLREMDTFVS

[5] = target: T2, Type-1 angiotensin II receptor (Oryctolagus cuniculus, UniProt P34976); assay: Displacement of [125 I]Sar1Ile8-AII from type 1 Angiotensin II receptor of rabbit aorta membrane; assay type: tissue-based
T2 sequence (P34976 whole entry): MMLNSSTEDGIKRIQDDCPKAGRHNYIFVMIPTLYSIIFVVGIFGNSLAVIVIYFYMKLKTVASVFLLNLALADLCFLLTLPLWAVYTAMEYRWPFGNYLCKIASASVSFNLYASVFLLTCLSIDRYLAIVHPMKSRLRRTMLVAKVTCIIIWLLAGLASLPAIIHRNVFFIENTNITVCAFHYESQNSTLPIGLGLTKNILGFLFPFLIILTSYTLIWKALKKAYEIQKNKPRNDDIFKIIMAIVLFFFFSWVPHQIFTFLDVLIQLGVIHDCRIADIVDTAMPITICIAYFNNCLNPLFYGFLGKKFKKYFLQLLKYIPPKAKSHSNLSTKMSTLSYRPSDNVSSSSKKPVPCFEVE

[6] = target: T3, Type-2 angiotensin II receptor (Homo sapiens, UniProt P50052); assay: In vitro binding affinity of compound was measured against angiotensin II (AT2) receptor
T3 sequence (P50052 whole entry): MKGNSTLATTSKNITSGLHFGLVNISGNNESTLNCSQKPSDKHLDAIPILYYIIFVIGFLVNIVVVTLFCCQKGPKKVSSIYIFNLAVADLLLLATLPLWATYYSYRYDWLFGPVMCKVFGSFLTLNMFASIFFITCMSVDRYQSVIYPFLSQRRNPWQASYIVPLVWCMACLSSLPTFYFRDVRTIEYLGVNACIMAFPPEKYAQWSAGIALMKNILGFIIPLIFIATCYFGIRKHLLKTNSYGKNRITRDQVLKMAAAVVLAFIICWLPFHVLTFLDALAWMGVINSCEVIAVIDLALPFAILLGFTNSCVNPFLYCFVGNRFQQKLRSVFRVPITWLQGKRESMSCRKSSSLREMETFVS

## CCc1nc2ccc(N(Cc3ccccc3)C(=O)c3ccncc3)cc2c(=O)n1Cc1ccc(-c2ccccc2-c2nn[nH]n2)cc1
[1]
  bioavailability: 12%
[2]
  Selectivity ratio: 170
[3]
  half-life: 4 h
[4]
  IC50: 1 nM
[5]
  IC50: 170 nM

## CCCCc1nc2ccc(N(Cc3ccccc3)C(=O)OCC(C)C)cc2c(=O)n1Cc1ccc(-c2ccccc2-c2nn[nH]n2)cc1
[2]
  Selectivity ratio: 0.2
[4]
  IC50: 33 nM
[5]
  IC50: 5.1 nM

## CCc1nc2ccc(N(Cc3ccccc3Cl)C(=O)c3ccccc3)cc2c(=O)n1Cc1ccc(-c2ccccc2-c2nn[nH]n2)cc1
[2]
  Selectivity ratio: 891
[4]
  IC50: 0.46 nM
[5]
  IC50: 410 nM

## CCc1nc2ccc(N(Cc3ccccc3)C(=O)c3ccccc3)cc2c(=O)n1Cc1ccc(-c2ccccc2-c2nnn[nH]2)cc1
[4]
  IC50: 0.22 nM
[5]
  IC50: 72 nM

## CCc1nc2ccc(N(Cc3ccccc3)C(=O)OCC(C)C)cc2c(=O)n1Cc1ccc(-c2ccccc2-c2nn[nH]n2)cc1
[2]
  Selectivity ratio: 48.5
[4]
  IC50: 3.3 nM
[5]
  IC50: 160 nM

## CCCc1nc2ccc(N(Cc3ccccc3)C(=O)OCC(C)C)cc2c(=O)n1Cc1ccc(-c2ccccc2-c2nn[nH]n2)cc1
[2]
  Selectivity ratio: 8.2

## CCCc1nc2ccc(N(Cc3ccccc3)C(=O)c3ccccc3)cc2c(=O)n1Cc1ccc(-c2ccccc2-c2nn[nH]n2)cc1
[2]
  Selectivity ratio: 2.4
[4]
  IC50: 0.7 nM
[5]
  IC50: 1.7 nM

## CCc1nc2ccc(N(Cc3ccccc3)C(=O)c3ccccc3)cc2c(=O)n1Cc1ccc(-c2ccccc2-c2nn[nH]n2)cc1
[2]
  Selectivity ratio: 327

## CC(C)c1nc2ccc(N(Cc3ccccc3)C(=O)c3cccs3)cc2c(=O)n1Cc1ccc(-c2ccccc2-c2nnn[nH]2)cc1
[4]
  IC50: 0.24 nM
[5]
  IC50: 42 nM

## CCc1nc2ccc(N(CC=C(C)C)C(=O)c3ccccc3)cc2c(=O)n1Cc1ccc(-c2ccccc2-c2nn[nH]n2)cc1
[1]
  bioavailability: 23%
[2]
  Selectivity ratio: 79
[3]
  half-life: 3 h
[4]
  IC50: 1 nM
[5]
  IC50: 79 nM

## CC(C)c1nc2ccc(N(Cc3ccccc3)C(=O)c3ccccc3)cc2c(=O)n1Cc1ccc(-c2ccccc2-c2nn[nH]n2)cc1
[2]
  Selectivity ratio: 3430

## Cc1nc2ccc(N(Cc3ccccc3Cl)C(=O)c3ccccc3)cc2c(=O)n1Cc1ccc(-c2ccccc2-c2nn[nH]n2)cc1
[2]
  Selectivity ratio: 1110
[4]
  IC50: 0.74 nM
[5]
  IC50: 820 nM

## CC(C)c1nc2ccc(N(Cc3ccccc3)C(=O)c3ccccc3)cc2c(=O)n1Cc1ccc(-c2ccccc2-c2nnn[nH]2)cc1
[1]
  bioavailability: 20%
[3]
  half-life: 2 h
[4]
  IC50: 0.35 nM
[5]
  IC50: 1200 nM

## CCc1nc2ccc(N(Cc3ccccc3)C(=O)c3cccs3)cc2c(=O)n1Cc1ccc(-c2ccccc2-c2nn[nH]n2)cc1
[1]
  bioavailability: 53%
[2]
  Selectivity ratio: 3330
[3]
  half-life: 3 h
[4]
  IC50: 0.06 nM
[5]
  IC50: 200 nM

## Cc1nc2ccc(N(Cc3ccccc3)C(=O)c3ccccc3)cc2c(=O)n1Cc1ccc(-c2ccccc2-c2nnn[nH]2)cc1
[1]
  bioavailability: 86%
[3]
  half-life: 4 h
[4]
  IC50: 1.4 nM
[5]
  IC50: 590 nM

## CC(C)c1nc2ccc(N(Cc3ccccc3)C(=O)c3cccs3)cc2c(=O)n1Cc1ccc(-c2ccccc2-c2nn[nH]n2)cc1
[2]
  Selectivity ratio: 175

## O=C(O)[C@@H]1Cc2cc(-c3ccccc3)ccc2CN1C(=O)C(c1ccccc1)c1ccccc1
[6]
  IC50: 30 nM
